The test system of assay [1] is PME defect of cps-6(tm3222) embryos. In words: PME microscopy assay in cps-6(tm3222) crosses. Format: in vivo, C. elegans. Particulars: 50 μM, 64-cell embryos (FIG. 3e-g).
Excerpt: The numbers of MTR-stained paternal mitochondrial clusters were scored as in FIG. 1a. cps-6(tm3222) and lgg-1(bp523) alleles were used in the assays. Data are mean±s.e.m. n=20 embryos (b) and 15 embryos (c) in each experiment. **P<0.01; ***P<0.001; n.s., not significant, two-sided, unpaired t-test.
To investigate how these six compounds might affect PME, the present inventors performed chemical genetic analysis to analyze the PME pathways that might be affected by the compounds. The present inventors first examined whether they might affect the paternal PME pathway mediated by the mitochondrial endonuclease CPS-6, whose activity is inhibited by oxidation and protected by reducing agents.
Another assay deals with T1, CPS-6 (Caenorhabditis elegans, UniProt Q95NM6).
T1 construct: Recombinant CPS-6 protein was incubated with the supercoiled plasmid DNA substrate
T1 sequence (Q95NM6 1-308): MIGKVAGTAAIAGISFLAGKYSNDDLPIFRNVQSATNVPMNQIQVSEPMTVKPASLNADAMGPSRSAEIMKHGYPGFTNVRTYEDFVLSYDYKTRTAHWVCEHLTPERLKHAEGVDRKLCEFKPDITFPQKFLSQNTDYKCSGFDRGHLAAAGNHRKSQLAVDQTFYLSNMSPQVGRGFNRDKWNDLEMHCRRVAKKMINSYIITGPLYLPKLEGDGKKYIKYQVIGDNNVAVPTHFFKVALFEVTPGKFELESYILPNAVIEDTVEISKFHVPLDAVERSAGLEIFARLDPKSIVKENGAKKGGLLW
Put plainly: plasmid DNA cleavage assay. Format: biochemical, C. elegans. Particulars: 20 μM; for effect on CPS-6 nuclease activity: 10 ng CPS-6, pPD49.78 plasmid DNA. Here is the method: FIG. 3. Resveratrol isomers target CPS-6 to affect PME. a, b, Both cis-resveratrol and trans-resveratrol act paternally to affect PME. The numbers of MTR-stained paternal mitochondrial clusters in embryos at 64-cell (a) or 16-cell (b) stage from the indicated crosses were scored. N2 males or hermaphrodites were pretreated with 0.25% ethanol (Mock), 50 μM cis-resveratrol (a), or 50 μM trans-resveratrol (b) as indicated before mating. c-g, Quantification of MTR-stained paternal mitochondrial clusters in 64-cell embryos from the indicated crosses treated with 0.25% ethanol (Mock), 50 μM cis-resveratrol, and 50 μM trans-resveratrol, respectively. Alleles used are lgg-1(bp523), cps-6(tm3222) and rad-23(tm2595). Data are mean s.e.m; n≥15 embryos (a) and n≥20 embryos (b, c-g) were scored in each experiment. ***P<0.001; n.s., not significant, two-sided, unpaired t-test. h, Resveratrol isomers enhance or inhibit the nuclease activity of CPS-6 in a plasmid DNA cleavage assay. 10 ng of CPS-6 were incubated with 0.25% ethanol (Mock), 20 μM cis-resveratrol, or 20 μM trans-resveratrol in dark at 4° C. for 1.5 hours, before 1 μg of the pPD49.78 plasmid DNA were added to the reactions. After further incubation at 30° C. for 1 hour, the reactions were resolved on a 1% agarose gel. Three different forms of plasmid DNA are indicated.
FIG. 11. Stabilized trans-resveratrol enhances the nuclease activity of CPS-6 in a plasmid DNA cleavage assay and is resistant to UV irradiation. 10 ng of CPS-6 were incubated with 0.25% ethanol (Mock), 20 μM locked trans-resveratrol with or without UV irradiation, 20 μM trans-resveratrol with or without UV irradiation, and 20 μM cis-resveratrol with or without UV irradiation, respectively, in dark at 4° C. for 1.5 hours, before 1 μg of the pPD49.78 plasmid DNA were added to the reactions. After further incubation at 30° C. for 1 hour, the reactions were resolved on a 1% agarose gel. Three different forms of plasmid DNA are indicated. Resveratrol isomers or derivative were subjected to UV irradiation for 3 hours.
Because resveratrol is an antioxidant and the endonuclease activity of CPS-6 is regulated by redox conditions both in vitro and in vivo, we investigated the possibility that resveratrol isomers could directly affect the nuclease activity of CPS-6 using a plasmid DNA cleavage assay. Recombinant CPS-6 protein was incubated with the supercoiled plasmid DNA substrate in the presence or absence of 20 μM trans-resveratrol or cis-resveratrol and the reactions were resolved by an agarose gel. […] Since the nuclease activity of CPS-6 is required for PME, these in vitro results are consistent with the in vivo observations that trans-resveratrol enhances and cis-resveratrol inhibits PME.

Assay [2] deals with LGG-1 autophagosome enclosure of MTR-stained paternal mitochondria in zygotes. In words: autophagosome formation on paternal mitochondria (SIM, anti-LGG-1). The assay is classed as in vivo, C. elegans. The following applies: males pretreated with 50 μM; for isolated paternal mitochondria: mock 16%; for paternal mitochondria fully enclosed by autophagosomes: mock 49%. Here is the method: FIG. 4. Resveratrol isomers affect autophagosome formation on paternal mitochondria. a-f, Analysis of enclosure of MTR-stained paternal mitochondria by LGG-1 autophagosomes. Zygotes from the indicated crosses with MTR-stained N2 males pretreated with 0.25% ethanol (Mock)(a,b), 50 μM trans-resveratrol (c,d), or 50 μM cis-resveratrol (e,f) were labeled with an antibody to LGG-1. Images were acquired with a Nikon SIM microscope. Dashed rectangles highlight the areas enlarged and shown below ([…]). Scale bars, 2 μm (a,c,e), 0.5 μm (b,d,f). g, Quantification of four types of paternal mitochondria in zygotes that were fully enclosed, partially enclosed, and not enclosed (isolated) by the LGG-1 autophagosomes and that had initiating phagophore, respectively. The number of MTR-stained paternal mitochondria scored in each experiment was shown below the pie chart.
CPS-6 plays a key role in promoting internal breakdown of paternal mitochondria and rapid autophagosome formation on damaged paternal mitochondria following fertilization, which leads to their subsequent degradation by autophagy. We tested if resveratrol isomers affect autophagosome formation on paternal mitochondria using superresolution structured illumination microscopy (SIM). In zygotes from mating of MTR-stained and mock-treated N2 males with unstained N2 hermaphrodites, close to one half (49%) of MTR-stained paternal mitochondria were fully enclosed by autophagosomes labeled by anti-LGG-1 monoclonal antibody (FIG. 4a, b and g). The remaining paternal mitochondria either were partially enclosed by autophagosomes (23%), or had adjacent autophagosome membrane that could initiate the elongation process along the paternal mitochondrion (12%; initiating phagophore), or were isolated (16%) with no nearby autophagosome or phagophore (FIG. 4a, b and g). In zygotes from mating of MTR-stained and trans-resveratrol-treated N2 males with N2 hermaphrodites, autophagosome formation on paternal mitochondria increased dramatically, with 75% of paternal mitochondria fully enclosed and 12% of paternal mitochondria partially enclosed by autophagosomes (FIG. 4c, d and g). […] On the other hand, in zygotes from mating between unstained N2 hermaphrodites and MTR-stained and cis-resveratrol-treated N2 males, autophagosome formation on paternal mitochondria decreased substantially.

In assay [3] the test system is cross-fertilized embryos with persistent uaDf5 paternal mitochondria (loss of lgg-1). In words: embryonic lethality caused by persistent uaDf5 paternal mitochondria. Particulars: 100 μM, males pretreated eight hours before mating, 25° C. The assay is classed as in vivo, C. elegans. Here is the method:
FIG. 10. Trans-resveratrol reduces embryonic lethality through enhancing removal of mutant paternal mitochondria. The embryonic lethality rate was scored in cross-fertilized embryos from crosses of the indicated genotypes. Males were pretreated with either 0.5% ethanol (Mock) or […] trans-resveratrol (trans) for eight hours before mating. All males carried smIs42 to assist identification of zygotes. Data are means SEM; n>200 embryos per cross at 25° C. n.s., no significant difference; *P<0.05 using two-sided, unpaired t-test.
Several studies have shown that abnormal persistence of paternal mitochondria is detrimental to normal development and causes various deficiencies, including neurological and muscular defects, which lack treatment options.

For the compound `Oc1ccc(/C=C/c2cc(O)cc(O)c2)cc1` [trans-resveratrol, 3,5,4′-trihydroxy-trans-stilbene], in assay [1], the “effect on PME defect in cps-6(tm3222) mutant and cps-6; lgg-1 and cps-6; rad-23 double mutants” value is on record as “neither cis-resveratrol nor trans-resveratrol could enhance or suppress the PME defect”. For the same compound, the “effect on CPS-6 nuclease activity” value at CPS-6 is “enhances the endonuclease activity of CPS-6”. Besides, the “effect on CPS-6 nuclease activity after UV irradiation of the compound” value at CPS-6 (compound UV irradiated for 3 hours (FIG. 11)) is reported as “lost its activity to enhance the nuclease activity of CPS-6”. Also, in assay [2], the isolated paternal mitochondria came to 7% and the “paternal mitochondria fully enclosed by autophagosomes” value amounted to 75%. In addition, in assay [2] (mock 23%), the “paternal mitochondria partially enclosed by autophagosomes” value is given as 12%. Further, in assay [3], the “embryonic lethality caused by uaDf5 paternal mitochondria” value was “significantly reduced embryonic lethality”.
Regarding `Oc1ccc(/C=C\c2cc(O)cc(O)c2)cc1` [cis-resveratrol], in assay [1], the “effect on PME defect in cps-6(tm3222) mutant and cps-6; lgg-1 and cps-6; rad-23 double mutants” value is “neither cis-resveratrol nor trans-resveratrol could enhance or suppress the PME defect”. Besides, the “effect on CPS-6 nuclease activity” value at CPS-6 is on record as “inhibits CPS-6 nuclease activity”. Besides, in assay [2], the isolated paternal mitochondria worked out at 31% and the “paternal mitochondria fully enclosed by autophagosomes” value is 35%.

The values above are taken from patent US20250346550A1, “METHODS OF MODULATING ENDONUCLEASE G USING RESVERATROL AND ITS DERIVATIVES” (THE REGENTS OF THE UNIVERSITY OF COLORADO A BODY CORPORATE, priority 2022, published 2025).
